Reference: ChEMBL document CHEMBL5653627 (J Neurochem, 2017)
Activity calls are given as the source filed them. The calls are words filed in the database; no cut-off is given here.

Assays:
SMA-497 [1] = experiment: Antitumor activity against mouse SMA-497 cells xenografted in VM/Dk mouse assessed as decrease in tumor volume at 100 mg/kg,po daily with 12 Gy irradition after 2days of treatment initiation by H and E staining based microscopy; assay type: functional, organism-based
SMA-560 [2] = experiment: In vivo inhibition of TIE-2 in VM/Dk mouse xenografted with mouse SMA-560 cells assessed as decrease in TIE-2 expression in brain blood vessels at 100 mg/kg,po daily with 12 Gy irradition after 2days of treatment initiation by immunohistochemistry analysis; assay type: functional, organism-based
SMA-497 [3] = experiment: Induction of apoptosis in mouse SMA-497 cells assessed as early apoptotic cells at 0.1 uM incubated for 72 hrs by Annexin V-FITC/PI staining based flow cytometric analysis (reference value: 0.015%); assay type: functional
SMA-497 [4] = experiment: In vivo inhibition of TIE-2 in VM/Dk mouse xenografted with mouse SMA-497 cells assessed as decrease in TIE-2 expression in brain blood vessels at 100 mg/kg,po daily with 12 Gy irradition after 2days of treatment initiation by immunohistochemistry analysis; assay type: functional, organism-based
[5] = Toxicity in VM/Dk mouse xenografted with mouse SMA-540 cells assessed as survival rate at 100 mg/kg,po daily (Rvb=>60%); assay type: organism-based; settings: in vivo
SMA-560 [6] = experiment: Antitumor activity against mouse SMA-560 cells xenografted in VM/Dk mouse assessed as decrease in number of CD31-positive intra-tumoral vessels in tumor at 100 mg/kg,po daily by immunohistochemistry analysis; assay type: functional, organism-based
SMA-560 [7] = experiment: Antitumor activity against mouse SMA-560 cells xenografted in VM/Dk mouse assessed as increase in number of tumor-infiltrating CD11b positive monocytes/microglia in tumor at 100 mg/kg,po daily with 12 Gy irradition after 2days of treatment initiation by immunohistochemistry analysis; assay type: functional, organism-based
SMA-497 [8] = experiment: Antitumor activity against mouse SMA-497 cells xenografted in VM/Dk mouse assessed as tumor cell proliferation at 100 mg/kg,po daily by Ki67 staining based immunohistochemistry analysis; assay type: functional, organism-based
[9] = Toxicity in VM/Dk mouse xenografted with mouse SMA-560 cells assessed as survival rate at 100 mg/kg,po daily (Rvb=13 to 20%); assay type: organism-based; settings: in vivo
SMA-560 [10] = experiment: Antitumor activity against mouse SMA-560 cells xenografted in VM/Dk mouse assessed as decrease in tumor volume at 100 mg/kg,po daily by H and E staining based microscopy; assay type: functional, organism-based
SMA-497 [11] = experiment: Antitumor activity against mouse SMA-497 cells xenografted in VM/Dk mouse assessed as decrease in number of CD31-positive intra-tumoral vessels in tumor at 100 mg/kg,po daily with 12 Gy irradition after 2days of treatment initiation by immunohistochemistry analysis; assay type: functional, organism-based
SMA-497 [12] = experiment: Antitumor activity against mouse SMA-497 cells xenografted in VM/Dk mouse assessed as increase in number of tumor-infiltrating CD11b positive monocytes/microglia in tumor at 100 mg/kg,po daily by immunohistochemistry analysis; assay type: functional, organism-based
SMA-560 [13] = experiment: Induction of apoptosis in mouse SMA-560 cells assessed as late apoptotic cells at 0.1 uM incubated for 72 hrs by Annexin V-FITC/PI staining based flow cytometric analysis (reference value: 1.83%); assay type: functional
SMA-560 [14] = experiment: Antitumor activity against mouse SMA-560 cells xenografted in VM/Dk mouse assessed as decrease in tumor cell proliferation at 100 mg/kg,po daily with 12 Gy irradition after 2days of treatment initiation by Ki67 staining based immunohistochemistry analysis; assay type: functional, organism-based
[15] = Toxicity in VM/Dk mouse xenografted with mouse SMA-497 cells assessed as survival rate at 100 mg/kg,po daily (Rvb=14 to 15%); assay type: organism-based; settings: in vivo
SMA-497 [16] = experiment: Antitumor activity against mouse SMA-497 cells xenografted in VM/Dk mouse assessed as decrease in tumor cell proliferation at 100 mg/kg,po daily with 12 Gy irradition after 2days of treatment initiation by Ki67 staining based immunohistochemistry analysis; assay type: functional, organism-based
Angiopoietin-1 receptor = Angiopoietin-1 receptor (Homo sapiens, UniProt Q02763); experiment: Binding affinity to TIE2 (unknown origin) assessed as dissociation constant by KINOME scan assay
SMA-497 [17] = experiment: Induction of cell cycle arrest in mouse SMA-497 cells assessed as accumulation at G2/M phase at 0.1 uM incubated for 72 hrs by propidium iodide/RNase staining based flow cytomtery (Rvb= 14%); assay type: functional
SMA-560 [18] = experiment: Anti-clonogenicic activity in mouse SMA-560 cells assessed as reduction in colony formation at 0.1 to 1 uM preincubated for 6 hrs followed by 1 to 9 Gy irradiation with and measured after 10 days by MTT based clonogenic survival assay; assay type: functional, cell-based; settings: dose 0.1-1 µM, time 246.0 hrs
SMA-560 [19] = experiment: Cytotoxicity against mouse SMA-560 cells assessed as reduction in metabolic activity at 0.001 to 100 uM incubated for 72 hrs by MTT assay; assay type: functional, cell-based; settings: dose 0.001-100 µM
GL261 = experiment: Antitumor activity against mouse GL261 cells xenografted in C57Bl/6 mouse assessed as increase in number of tumor-infiltrating CD11b positive monocytes/microglia in tumor at 100 mg/kg,po daily by immunohistochemistry analysis; assay type: functional, organism-based
SMA-540 [20] = experiment: In vivo inhibition of TIE-2 in VM/Dk mouse xenografted with mouse SMA-540 cells assessed as decrease in TIE-2 expression in brain blood vessels at 100 mg/kg,po daily by immunohistochemistry analysis; assay type: functional, organism-based
SMA-560 [21] = experiment: Induction of apoptosis in mouse SMA-560 cells assessed as early apoptotic cells at 0.1 uM incubated for 72 hrs by Annexin V-FITC/PI staining based flow cytometric analysis (reference value: 0.0056%); assay type: functional
SMA-560 [22] = experiment: Antitumor activity against mouse SMA-560 cells xenografted in VM/Dk mouse assessed as increase in number of tumor-infiltrating CD11b positive monocytes/microglia in tumor at 100 mg/kg,po daily by immunohistochemistry analysis; assay type: functional, organism-based
SMA-560 [23] = experiment: Induction of cell cycle arrest in mouse SMA-560 cells assessed as accumulation at sub G1 phase at 0.1 uM incubated for 72 hrs by propidium iodide/RNase staining based flow cytomtery (Rvb= 2%); assay type: functional
SMA-497 [24] = experiment: Induction of cell cycle arrest in mouse SMA-497 cells assessed as accumulation at G0/G1 phase at 0.1 uM incubated for 72 hrs by propidium iodide/RNase staining based flow cytomtery (Rvb= 76%); assay type: functional
SMA-540 [25] = experiment: Antitumor activity against mouse SMA-540 cells xenografted in VM/Dk mouse assessed as increase in number of tumor-infiltrating CD11b positive monocytes/microglia in tumor at 100 mg/kg,po daily by immunohistochemistry analysis; assay type: functional, organism-based
SMA-560 [26] = experiment: Induction of cell cycle arrest in mouse SMA-560 cells assessed as accumulation at G2/M phase at 0.1 uM incubated for 72 hrs by propidium iodide/RNase staining based flow cytomtery (Rvb= 25%); assay type: functional
SMA-560 [27] = experiment: Anti-clonogenicic activity in mouse SMA-560 cells assessed as reduction in colony formation at 0.001 to 10 uM and measured after 10 days by MTT based clonogenic survival assay; assay type: functional, cell-based; settings: dose 0.001-10 µM, time 10.0 day
SMA-497 [28] = experiment: Antitumor activity against mouse SMA-497 cells xenografted in VM/Dk mouse assessed as decrease in number of CD31-positive intra-tumoral vessels in tumor at 100 mg/kg,po daily by immunohistochemistry analysis; assay type: functional, organism-based

Chain of Angiopoietin-1 receptor (Q02763 whole entry): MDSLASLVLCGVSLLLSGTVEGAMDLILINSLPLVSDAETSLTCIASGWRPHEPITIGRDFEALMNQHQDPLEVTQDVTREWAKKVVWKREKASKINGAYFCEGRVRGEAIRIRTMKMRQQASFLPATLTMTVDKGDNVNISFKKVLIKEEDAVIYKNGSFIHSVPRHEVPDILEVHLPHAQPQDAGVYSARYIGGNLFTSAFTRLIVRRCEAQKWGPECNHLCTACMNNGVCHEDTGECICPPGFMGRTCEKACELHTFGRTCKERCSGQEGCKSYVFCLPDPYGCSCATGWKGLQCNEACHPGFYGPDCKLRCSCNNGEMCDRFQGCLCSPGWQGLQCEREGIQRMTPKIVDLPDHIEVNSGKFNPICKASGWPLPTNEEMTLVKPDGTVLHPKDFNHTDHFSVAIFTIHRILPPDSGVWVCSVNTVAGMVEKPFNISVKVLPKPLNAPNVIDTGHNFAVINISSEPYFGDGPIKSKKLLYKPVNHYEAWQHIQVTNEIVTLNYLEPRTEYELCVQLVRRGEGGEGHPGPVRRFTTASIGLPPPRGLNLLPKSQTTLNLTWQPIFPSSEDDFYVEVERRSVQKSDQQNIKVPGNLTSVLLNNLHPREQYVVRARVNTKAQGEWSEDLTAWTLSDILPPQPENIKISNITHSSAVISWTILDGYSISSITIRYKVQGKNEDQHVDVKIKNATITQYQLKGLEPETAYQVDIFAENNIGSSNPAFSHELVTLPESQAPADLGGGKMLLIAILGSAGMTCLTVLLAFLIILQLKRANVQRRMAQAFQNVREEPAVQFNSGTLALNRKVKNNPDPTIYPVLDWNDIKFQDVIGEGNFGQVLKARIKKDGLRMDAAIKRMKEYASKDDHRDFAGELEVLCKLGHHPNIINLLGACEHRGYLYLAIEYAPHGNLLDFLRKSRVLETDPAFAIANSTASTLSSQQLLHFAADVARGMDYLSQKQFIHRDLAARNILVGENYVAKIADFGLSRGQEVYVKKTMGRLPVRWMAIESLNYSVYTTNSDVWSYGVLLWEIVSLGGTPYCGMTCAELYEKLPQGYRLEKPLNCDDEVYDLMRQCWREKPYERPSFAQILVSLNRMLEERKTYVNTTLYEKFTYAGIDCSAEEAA

In the case of `Cc1cc(C)c(-n2ccn3nc(-c4cccnc4)cc23)cc1NC(=O)c1cc(C#N)cc(S(F)(F)(F)(F)F)c1` [BAY-826], the Activity (SMA-497 [1]) is reported as “inactive”, the inhibition (SMA-560 [2]) is reported as “Active” and the Activity (SMA-497 [3]) is reported as 0%. For the same compound, the inhibition (SMA-497 [4]) was “Active”, the Survival [5] was over 60% and the Activity (SMA-560 [6]) was “Active”. For the same compound, the Activity (SMA-560 [7]) was “Active”, the Activity (SMA-497 [8]) was “inactive” and the Survival [9] was 15%. For the same compound, the Activity (SMA-560 [10]) was “inactive”, the Activity (SMA-497 [11]) was “Active” and the Activity (SMA-497 [12]) was “Active”. For the same compound, the Activity (SMA-560 [13]) was 0.66%, the Activity (SMA-560 [14]) was “inactive” and the Survival [15] was 17%. For the same compound, the Activity (SMA-497 [16]) was “Active”, the Kd (Angiopoietin-1 receptor) was 1.6 nM and the Activity (SMA-497 [17]) was 10%. The Activity (SMA-560 [18]) was “inactive”, the Activity (SMA-560 [19]) was “inactive” and the Activity (GL261) was “inactive”. For the same compound, the inhibition (SMA-540 [20]) was “Active”, the Activity (SMA-560 [21]) was 0% and the Activity (SMA-560 [22]) was “inactive”. For the same compound, the Activity (SMA-560 [23]) was 2%, the Activity (SMA-497 [24]) was 66% and the Activity (SMA-540 [25]) was “Active”. For the same compound, the Activity (SMA-560 [26]) was 28%, the Activity (SMA-560 [27]) was “inactive” and the Activity (SMA-497 [28]) was “inactive”.
